Measurements as given in US6960592B2, “1,6-dihydro-7H-pyrazolo[4,3-d]pyrimidin-7-one compound for the treatment of impotence” (priority 2001, dated 2005).

Assays:
male mice = settings: orally, single dose, from Chinese Journal of Clinical Pharmacology and Therapeutics 1999, 4(3), 237-240; cited from earlier work
rats with testis removed = assay: Penis erection test in rats with testis removed; assay type: in vivo
Description: Test 1. Penis erection test of the compound formula (I′) in rats with testis removed

mice with testis removed = assay: Effect on the sexual function in mice with testis removed; assay type: in vivo
Description: Test 2. Effect of the compound of formula (I′) on the sexual function in mice with testis removed

[1] = Toxicity test, LD50 by Bliss method, oral gavage; settings: mouse, in vivo, mice, orally by gavage, confidence limit of 95% 772.5-1052.1 mg/kg, read-out: half-lethal dosage (LD50)
Experimental: The confidence limit of 95% is 772.5-1052.1 mg/kg.

| Compound | LD50 (male mice) [mg/kg] | latent period of penis erection by electric irritation (10V) (rats with testis removed; sildenafil comparator, dose not given, P<0.01) | latent period which male mice catch female mice (mice with testis removed; dosage 12 mg/kg, P<0.01) | times of back-climbing on female mice by male mice (times of sexual intercourse) (mice with testis removed; dosage 12 mg/kg, P<0.01) | latent period which male mice catch female mice (mice with testis removed; dosage 24 mg/kg, P<0.05) | times of back-climbing on female mice by male mice (times of sexual intercourse) (mice with testis removed; dosage 24 mg/kg, P<0.05) | LD50 [1] [mg/kg] | latent period of penis erection by electric irritation (10V) (rats with testis removed; dosage 12 mg/kg, P<0.01) | latent period of penis erection by electric irritation (10V) (rats with testis removed; dosage 24 mg/kg, P<0.05) |
| --- | --- | --- | --- | --- | --- | --- | --- | --- | --- |
| CCCc1nn(C)c2c(=O)[nH]c(-c3cc(S(=O)(=O)N4CCN(C)CC4)ccc3OCC)nc12 [sildenafil, 1-[4-ethoxy-3-(6,7-dihydro-1-methyl-7-oxo-3-propyl-1H-pyrazolo[4,3-d]pyrimidin-5-yl)phenylsulphonyl]-4-methylpiperazine, reference compound] | 625 | significantly shortened |  |  |  |  |  |  |  |
| CCCc1nn(C)c2c(=O)[nH]c(-c3cc(S(=O)(=O)N4C[C@@H](C)N[C@@H](C)C4)ccc3OCC)nc12 [compound of formula (I′), 5-[[2-ethoxy-5-(cis-2,6-dimethylpiperazin-4-ylsulphonyl)phenyl]]-1-methyl-3-n-propyl-7,6-dihydro-1H-pyrazolo[4,3-d]pyrimidin-7-one] |  |  | significantly shortened | significantly increased | significantly shortened | significantly increased | 902 | significantly shortened | significantly shortened |
